The record followed here is patent US10106542B2, “Substituted 6,7-dihydropyrazolo[1,5-a]pyrazines as negative allosteric modulators of mGluR2 receptors” (Janssen Pharmaceutica NV, priority 2013, dated 2018).

Bounds are passed on as bounds.

Data set [1] addresses T1, human mGlu2 receptor (Homo sapiens, UniProt Q14416).
T1 construct: expressed in transfected cells; host or cells: CHO cells (membrane preparation)
The data set is described as follows: [35S]GTPγS binding assay (mGluR2 negative allosteric modulation). The format is biochemical. The following applies: for IC50: membranes from CHO cells transfected with human mGlu2 receptor, glutamate 60 μM, pIC50 = −log IC50 (M), read-out: GTPγS - hmGluR2 anGT pIC50 (converted); for Emax: relative maximal effect: maximal % inhibition relative to the control glutamate response, read-out: GTPγS - hmGluR2 anGT Emax. Summed up: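 Membranes from butyrate-stimulated CHO cells expressing human mGlu2; 7 μg protein in HEPES pH 7.4, 100 mM NaCl, 3 mM MgCl2, 10 μM GDP, 10 μg/ml saponin. Compound tested against EC80-equivalent glutamate; 0.1 nM [35S]GTPγS, 30 min, 30 °C; filtration, scintillation counting. Data as % of control glutamate response.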

T1 sequence (Q14416 19-872): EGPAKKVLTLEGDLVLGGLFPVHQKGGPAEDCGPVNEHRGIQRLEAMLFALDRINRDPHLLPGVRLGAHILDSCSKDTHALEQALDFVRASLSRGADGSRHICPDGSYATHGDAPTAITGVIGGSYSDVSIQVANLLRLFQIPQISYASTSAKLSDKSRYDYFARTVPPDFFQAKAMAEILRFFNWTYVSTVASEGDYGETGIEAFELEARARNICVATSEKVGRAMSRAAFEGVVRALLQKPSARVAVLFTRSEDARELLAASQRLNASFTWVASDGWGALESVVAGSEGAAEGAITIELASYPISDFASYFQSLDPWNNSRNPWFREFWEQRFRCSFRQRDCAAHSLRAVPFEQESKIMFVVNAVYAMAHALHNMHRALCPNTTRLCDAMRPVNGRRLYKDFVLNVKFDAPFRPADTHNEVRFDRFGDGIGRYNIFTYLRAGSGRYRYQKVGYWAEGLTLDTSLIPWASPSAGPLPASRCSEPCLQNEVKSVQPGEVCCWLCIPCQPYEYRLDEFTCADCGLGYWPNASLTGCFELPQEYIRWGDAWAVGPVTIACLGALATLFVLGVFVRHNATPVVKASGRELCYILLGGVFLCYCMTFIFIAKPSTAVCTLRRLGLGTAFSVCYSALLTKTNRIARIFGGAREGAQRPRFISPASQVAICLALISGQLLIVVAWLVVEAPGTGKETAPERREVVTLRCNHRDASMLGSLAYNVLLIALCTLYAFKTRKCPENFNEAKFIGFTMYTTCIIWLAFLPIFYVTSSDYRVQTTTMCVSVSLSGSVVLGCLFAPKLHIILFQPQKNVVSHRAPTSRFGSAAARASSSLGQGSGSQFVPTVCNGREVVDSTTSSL

In turn, `Cc1cc(-c2cnn3c2C(=O)N(c2ccc(S(F)(F)(F)(F)F)cc2)C[C@@H]3C)cc(C)n1` [compound 53] yielded a melting point of 233.1 °C. Besides, in data set [1], the IC50 was 9.77e-09 M and the Emax was found to be 102%.
On the same counts, the results for `Cc1cc(-c2cnn3c2C(=O)N(c2ccc(Cl)c(C(F)(F)F)c2)C[C@@H]3C)cc(C)n1` [compound 54] are 205.1 °C, 1.05e-08 M and 105%.
In the same order, the values of `CCOc1cc(N2C[C@H](C)n3ncc(-c4ccncc4)c3C2=O)ccc1C(F)(F)F` [compound 55] are 104.2 °C, 1.62e-08 M and 104%.
On the same counts, the results for `C[C@H]1CN(c2ccc(S(F)(F)(F)(F)F)cc2)C(=O)c2c(-c3ccncc3)cnn21` [compound 56] are 199 °C, 1.62e-08 M and 102%.
Consider `C[C@H]1CN(c2ccc(Cl)c(Cl)c2)C(=O)c2c(-c3ccncc3)cnn21` [compound 57], for which the melting point worked out at 153.2 °C. In data set [1], the IC50 is 1.29e-08 M and the maximum response (Emax) is 104%.
Compound `Cc1cc(-c2cnn3c2C(=O)N(c2ccc(C(F)(F)F)c(C#N)c2)C[C@@H]3C)cc(C)n1` [compound 59] yielded a melting point of 214.1 °C. In data set [1], the IC50 is 3.55e-08 M and the maximal response (Emax) is 98%.
`C[C@H]1CN(c2ccc(C(F)(F)F)c(F)c2)C(=O)c2c(-c3ccncc3)cnn21` [compound 60] yielded a melting point of 163.8 °C. Besides, in data set [1], the IC50 is 3.16e-08 M and the maximum response (Emax) was found to be 101%.
In the same order, the values of `Cc1cc(-c2cnn3c2C(=O)N(c2ccc(C(F)(F)F)c(F)c2)C[C@@H]3C)cc(C)n1` [compound 61] are 73.3 °C, 2.82e-08 M and 106%.
As for `Cc1cc(-c2cnn3c2C(=O)N(c2ccc(Cl)c(F)c2)C[C@@H]3C)ccn1` [compound 62], the melting point was 141.7 °C. In addition, in data set [1], the IC50 was 3.31e-08 M and the Emax worked out at 105%.
On the same counts, the results for `COc1cc(N2C[C@H](C)n3ncc(-c4ccncc4)c3C2=O)ccc1C(F)(F)F` [compound 64] are 273.9 °C, 2.63e-08 M and 103%.
In the same order, the values of `C[C@H]1CN(c2ccc(Cl)c(C(F)(F)F)c2)C(=O)c2c(-c3ccncc3)cnn21` [compound 68] are over 300 °C, 7.08e-08 M and 100%.
On the same counts, the results for `C[C@H]1CN(c2ccc(C(F)(F)F)cc2)C(=O)c2c(-c3ccnc(N)c3)cnn21` [compound 71, (7S)-3-(2-Aminopyridin-4-yl)-7-methyl-5-[4-(trifluoromethyl)phenyl]-6,7-dihydropyrazolo[1,5-a]pyrazin-4(5H)-one] are 218.9 °C, 9.77e-08 M and 103%.
As to `Cc1cc(-c2cnn3c2C(=O)N(c2ccc(Cl)cc2)C[C@@H]3C)cc(C)n1` [compound 72], the melting point came out at 88 °C. In data set [1], the IC50 was 1.07e-07 M and the maximal effect (Emax) was determined as 103%.
In the same order, the values of `C[C@H]1CN(c2ccc(Cl)cc2)C(=O)c2c(-c3ccncc3)cnn21` [compound 73] are 144.3 °C, 1.29e-07 M and 102%.
In the same order, the values of `CCOc1cc(N2CC(CO)n3ncc(-c4ccnc(C)c4)c3C2=O)ccc1C(F)(F)F` (stereo not drawn) [compound 74] are 99.1 °C, 2.14e-07 M and 100%.
In the same order, the values of `Cc1cc(-c2cnn3c2C(=O)N(c2ccc(OCCF)c(C(F)(F)F)c2)C[C@@H]3C)ccn1` [compound 77, (7S)-5-[4-(2-Fluoroethoxy)-3-(trifluoromethyl)phenyl]-7-methyl-3-(2-methyl-4-pyridyl)-6,7-dihydropyrazolo[1,5-a]pyrazin-4-one] are 60.8 °C, 3.89e-07 M and 101%.
Turning to `COc1cc(N2C[C@H](C)n3ncc(-c4ccnc(C)c4)c3C2=O)cc(F)c1F` [compound 84], the melting point was found to be 101.2 °C. In data set [1], the IC50 is 8.13e-07 M and the Emax amounted to 104%.
`COc1cc(F)cc(N2C[C@H](C)n3ncc(-c4ccnc(C)c4)c3C2=O)c1` [compound 85] came in with a melting point of 133 °C. Moreover, in data set [1], the IC50 is 9.55e-07 M and the maximum response (Emax) came to 101%.
In the same order, the values of `COc1cc(-c2cnn3c2C(=O)N(c2ccc(C(F)(F)F)c(C#N)c2)C[C@@H]3C)ccn1` [compound 88] are 157.75 °C (dec.), 4.07e-08 M and 102%.
In the case of `C[C@H]1CN(c2ccc(C(F)(F)F)cc2)C(=O)c2c(-c3ccnc(N4CC(O)C4)c3)cnn21` [compound 101], the melting point was over 300 °C. Further, in data set [1], the IC50 is 4.07e-07 M and the Emax amounted to 109%.
On the same counts, the results for `C[C@H]1CN(c2ccc(C(F)(F)F)cc2)C(=O)c2c(-c3ccnc(N4CCCC4)c3)cnn21` [compound 105] are 124 °C, 2.75e-08 M and 108%.
On the same counts, the results for `C[C@H]1CN(c2ccc(C(F)(F)F)cc2)C(=O)c2c(-c3ccnc(N4CCOCC4)c3)cnn21` [compound 108] are 128.1 °C, 1.23e-07 M and 108%.
`C[C@H]1CN(c2ccc(Cl)c(Cl)c2)C(=O)c2c(-c3ccnc(C#N)c3)cnn21` [compound 109] displayed a melting point of 149.8 °C. Further, in data set [1], the IC50 was 1.86e-08 M and the Emax was determined as 107%.
In the case of `CC(O)c1cc(-c2cnn3c2C(=O)N(c2ccc(Cl)c(Cl)c2)C[C@@H]3C)ccn1` (stereo partly drawn) [compound 111, (7S)-5-(3,4-Dichlorophenyl)-3-[2-(1-hydroxyethyl)-4-pyridyl]-7-methyl-6,7-dihydropyrazolo[1,5-a]pyrazin-4-one], the melting point was over 300 °C. Further, in data set [1], the IC50 is 2.95e-07 M and the Emax turned out to be 108%.
On the same counts, the results for `C[C@H]1CN(c2ccc(C(F)(F)F)cc2)C(=O)c2c(-c3ccnc(CF)c3)cnn21` [compound 112] are 154.9 °C, 3.55e-08 M and 103%.
For `C[C@H]1CN(c2ccc(Cl)c(Cl)c2)C(=O)c2c(-c3ccnc(C(F)F)c3)cnn21` [compound 114], the melting point came to 177.6 °C. Also, in data set [1], the IC50 is 7.08e-09 M and the maximum response (Emax) stood at 104%.
In the same order, the values of `CCOc1cc(-c2cnn3c2C(=O)N(c2ccc(C(F)(F)F)cc2)C[C@@H]3C)ccn1` [compound 123] are 189.5 °C, 6.61e-09 M and 107%.
Turning to `CC(C)c1cc(-c2cnn3c2C(=O)N(c2ccc(Cl)c(Cl)c2)C[C@@H]3C)ccn1` [compound 124], the melting point was 62.4 °C. Further, in data set [1], the IC50 is 3.02e-09 M and the Emax was 108%.
On the same counts, the results for `C[C@H]1CN(c2ccc(Cl)c(Cl)c2)C(=O)c2c(-c3ccnc(CO)c3)cnn21` [compound 125, (7S)-5-(3,4-Dichlorophenyl)-3-[2-(hydroxymethyl)-4-pyridyl]-7-methyl-6,7-dihydropyrazolo[1,5-a]pyrazin-4-one] are 105.4 °C, 1.78e-07 M and 105%.
In the case of `CC(C)c1cc(-c2cnn3c2C(=O)N(c2ccc(C(F)(F)F)cc2)C[C@@H]3C)ccn1` [compound 126, (7S)-3-(2-Isopropyl-4-pyridyl)-7-methyl-5-[4-(trifluoromethyl)phenyl]-6,7-dihydropyrazolo[1,5-a]pyrazin-4-one], the melting point turned out to be 70.5 °C. Further, in data set [1], the IC50 is 5.75e-09 M and the Emax was found to be 108%.
In the same order, the values of `CC(O)c1cc(-c2cnn3c2C(=O)N(c2ccc(C(F)(F)F)cc2)C[C@@H]3C)ccn1` (stereo partly drawn) [compound 128] are 139.8 °C, 5.89e-07 M and 104%.
As to `CC[C@@H]1CN(c2ccc(C(F)(F)F)cc2)C(=O)c2c(-c3ccnc(C)c3)cnn21` [compound 129], the melting point is 135.1 °C. In addition, in data set [1], the IC50 is 6.92e-07 M and the maximal response (Emax) worked out at 100%.
On the same counts, the results for `CC[C@H]1CN(c2ccc(C(F)(F)F)cc2)C(=O)c2c(-c3ccnc(C)c3)cnn21` [compound 130] are 134.4 °C, 1.7e-08 M and 102%.
On the same counts, the results for `C[C@H]1CN(c2ccc(C(F)(F)F)cc2)C(=O)c2c(-c3ccnc(C(F)F)c3)cnn21` [compound 131] are 134.7 °C, 2.45e-08 M and 105%.
In the same order, the values of `Cc1cc(-c2cnn3c2C(=O)N(c2cc(F)c(C(F)(F)F)c(F)c2)C[C@@H]3C)ccn1` [compound 132] are 148 °C, 2.4e-08 M and 103%.
`Cc1cc(-c2cnn3c2C(=O)N(c2ccc(C4(C(F)(F)F)CC4)cc2)C[C@@H]3C)ccn1` [compound 136] had a melting point of 126.2 °C. For the same compound, in data set [1], the IC50 was 4.37e-08 M and the Emax stood at 102%.
On the same counts, the results for `COCC1CN(c2ccc(Cl)c(Cl)c2)C(=O)c2c(-c3ccnc(C)c3)cnn21` (stereo not drawn) [compound 143] are over 300 °C, 2.45e-08 M and 104%.
In the same order, the values of `COc1cc(-c2cnn3c2C(=O)N(c2ccc(C(F)(F)F)cc2)C[C@@H]3C)cc(C)n1` [compound 145] are 57.5 °C, 1.86e-08 M and 105%.
